Assay results published in PubChem BioAssay (NCI).
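Assay format: 96-well plates, 48-hour exposure. Definition used: TGI = concentration required for complete inhibition of growth.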

Experiments:
Experiment in all cases: DTP human tumour cell line panel, 48 h
MDA-MB-435 = test system: MDA-MB-435
HL-60(TB) leukemia = test system: HL-60(TB) leukemia
M14 melanoma = test system: M14 melanoma
A498 renal = test system: A498 renal
A549 NSCLC = test system: A549 NSCLC
U251 CNS = test system: U251 CNS
SF-268 CNS = test system: SF-268 CNS
HCT-116 colon = test system: HCT-116 colon
NCI-H23 lung = test system: NCI-H23 lung
COLO 205 colon = test system: COLO 205 colon
UACC-257 melanoma = test system: UACC-257 melanoma
LOX IMVI melanoma = test system: LOX IMVI melanoma
SK-MEL-2 melanoma = test system: SK-MEL-2 melanoma
HCT-15 colon = test system: HCT-15 colon
OVCAR-5 ovarian = test system: OVCAR-5 ovarian
OVCAR-4 ovarian = test system: OVCAR-4 ovarian
SNB-19 CNS = test system: SNB-19 CNS
786-0 renal = test system: 786-0 renal
MOLT-4 leukemia = test system: MOLT-4 leukemia
SK-OV-3 ovarian = test system: SK-OV-3 ovarian

SMILES: NC(=O)c1sc2nc3ccccc3n2c1N
- TGI (MDA-MB-435): > 100 µM
- TGI (HL-60(TB) leukemia): > 100 µM
- TGI (M14 melanoma): > 100 µM
- TGI (A498 renal): > 100 µM
- TGI (A549 NSCLC): > 100 µM
- TGI (U251 CNS): 87.4 µM
- TGI (SF-268 CNS): > 100 µM
- TGI (HCT-116 colon): > 100 µM
- TGI (NCI-H23 lung): 41.4 µM
- TGI (COLO 205 colon): > 100 µM
- TGI (UACC-257 melanoma): > 100 µM
- TGI (LOX IMVI melanoma): > 100 µM
- TGI (SK-MEL-2 melanoma): 99.2 µM
- TGI (HCT-15 colon): > 100 µM
- TGI (OVCAR-5 ovarian): > 100 µM
- TGI (OVCAR-4 ovarian): > 100 µM
- TGI (SNB-19 CNS): > 100 µM
- TGI (786-0 renal): > 100 µM
- TGI (MOLT-4 leukemia): > 100 µM
- TGI (SK-OV-3 ovarian): 89.4 µM

SMILES: O=c1cc(CNC2CC3CCC2C3)[nH]c(=O)[nH]1 (stereo not given)
- TGI (MDA-MB-435): > 100 µM
- TGI (HL-60(TB) leukemia): > 100 µM
- TGI (M14 melanoma): > 100 µM
- TGI (A498 renal): > 100 µM
- TGI (A549 NSCLC): > 100 µM
- TGI (U251 CNS): > 100 µM
- TGI (SF-268 CNS): > 100 µM
- TGI (HCT-116 colon): > 100 µM
- TGI (NCI-H23 lung): > 100 µM
- TGI (COLO 205 colon): > 100 µM
- TGI (UACC-257 melanoma): > 100 µM
- TGI (LOX IMVI melanoma): > 100 µM
- TGI (SK-MEL-2 melanoma): > 100 µM
- TGI (HCT-15 colon): > 100 µM
- TGI (OVCAR-5 ovarian): > 100 µM
- TGI (OVCAR-4 ovarian): > 100 µM
- TGI (SNB-19 CNS): > 100 µM
- TGI (786-0 renal): > 100 µM
- TGI (MOLT-4 leukemia): > 100 µM
- TGI (SK-OV-3 ovarian): > 100 µM

SMILES: CSc1c(C#N)c(S)n(-c2ccc(Cl)cc2)c(=O)c1C#N
- TGI (MDA-MB-435): > 100 µM
- TGI (HL-60(TB) leukemia): > 100 µM
- TGI (M14 melanoma): > 100 µM
- TGI (A498 renal): > 100 µM
- TGI (A549 NSCLC): > 100 µM
- TGI (U251 CNS): > 100 µM
- TGI (SF-268 CNS): > 100 µM
- TGI (HCT-116 colon): > 100 µM
- TGI (NCI-H23 lung): > 100 µM
- TGI (COLO 205 colon): > 100 µM
- TGI (UACC-257 melanoma): > 100 µM
- TGI (LOX IMVI melanoma): > 100 µM
- TGI (SK-MEL-2 melanoma): > 100 µM
- TGI (HCT-15 colon): > 100 µM
- TGI (OVCAR-5 ovarian): > 100 µM
- TGI (OVCAR-4 ovarian): > 100 µM
- TGI (SNB-19 CNS): > 100 µM
- TGI (786-0 renal): > 100 µM
- TGI (MOLT-4 leukemia): > 100 µM
- TGI (SK-OV-3 ovarian): > 100 µM

SMILES: Cc1ccc(S(=O)(=O)N2CC(CCN)c3ccccc32)cc1 (stereo not given)
- TGI (MDA-MB-435): 27.1 µM
- TGI (HL-60(TB) leukemia): > 100 µM
- TGI (M14 melanoma): 8.4 µM
- TGI (A498 renal): 40.6 µM
- TGI (A549 NSCLC): 32.5 µM
- TGI (U251 CNS): 18.4 µM
- TGI (SF-268 CNS): 23.8 µM
- TGI (HCT-116 colon): 25.6 µM
- TGI (NCI-H23 lung): > 52.6 µM
- TGI (COLO 205 colon): 24.3 µM
- TGI (UACC-257 melanoma): 33.9 µM
- TGI (LOX IMVI melanoma): 13.5 µM
- TGI (SK-MEL-2 melanoma): 13.4 µM
- TGI (HCT-15 colon): > 100 µM
- TGI (OVCAR-5 ovarian): 24 µM
- TGI (OVCAR-4 ovarian): > 100 µM
- TGI (SNB-19 CNS): 31.3 µM
- TGI (786-0 renal): 14.7 µM
- TGI (MOLT-4 leukemia): > 83.9 µM
- TGI (SK-OV-3 ovarian): > 44.7 µM

SMILES: c1n[nH]cc1C12C3C4C5C3C1C5C42 (stereo not given)
- TGI (MDA-MB-435): > 100 µM
- TGI (HL-60(TB) leukemia): > 100 µM
- TGI (M14 melanoma): > 100 µM
- TGI (A498 renal): > 100 µM
- TGI (A549 NSCLC): > 100 µM
- TGI (U251 CNS): > 100 µM
- TGI (SF-268 CNS): > 100 µM
- TGI (HCT-116 colon): > 100 µM
- TGI (NCI-H23 lung): > 100 µM
- TGI (COLO 205 colon): > 100 µM
- TGI (UACC-257 melanoma): > 100 µM
- TGI (LOX IMVI melanoma): > 100 µM
- TGI (SK-MEL-2 melanoma): > 100 µM
- TGI (HCT-15 colon): > 100 µM
- TGI (OVCAR-5 ovarian): > 100 µM
- TGI (OVCAR-4 ovarian): > 100 µM
- TGI (SNB-19 CNS): > 100 µM
- TGI (786-0 renal): > 100 µM
- TGI (MOLT-4 leukemia): > 100 µM
- TGI (SK-OV-3 ovarian): > 100 µM

SMILES: c1ccc(C2=C(c3ccccc3)Sc3nnc(CCCCCCCCc4nnc5n4NC(c4ccccc4)=C(c4ccccc4)S5)n3N2)cc1
- TGI (MDA-MB-435): > 100 µM
- TGI (HL-60(TB) leukemia): 37.2 µM
- TGI (M14 melanoma): > 100 µM
- TGI (A498 renal): > 100 µM
- TGI (A549 NSCLC): > 100 µM
- TGI (U251 CNS): > 100 µM
- TGI (SF-268 CNS): > 100 µM
- TGI (HCT-116 colon): > 100 µM
- TGI (NCI-H23 lung): > 100 µM
- TGI (COLO 205 colon): > 100 µM
- TGI (UACC-257 melanoma): > 100 µM
- TGI (LOX IMVI melanoma): > 100 µM
- TGI (SK-MEL-2 melanoma): > 100 µM
- TGI (HCT-15 colon): > 100 µM
- TGI (OVCAR-5 ovarian): > 100 µM
- TGI (OVCAR-4 ovarian): > 100 µM
- TGI (SNB-19 CNS): > 100 µM
- TGI (786-0 renal): > 100 µM
- TGI (MOLT-4 leukemia): 49.9 µM
- TGI (SK-OV-3 ovarian): > 100 µM

SMILES: CCCCN(C)C(=O)C1=C(C)NC(C)=C(C(=O)N(C)CCCC)C1
- TGI (MDA-MB-435): > 100 µM
- TGI (HL-60(TB) leukemia): > 100 µM
- TGI (M14 melanoma): > 100 µM
- TGI (A498 renal): > 100 µM
- TGI (A549 NSCLC): > 100 µM
- TGI (U251 CNS): > 100 µM
- TGI (SF-268 CNS): > 100 µM
- TGI (HCT-116 colon): > 100 µM
- TGI (NCI-H23 lung): > 100 µM
- TGI (COLO 205 colon): > 100 µM
- TGI (UACC-257 melanoma): > 100 µM
- TGI (LOX IMVI melanoma): > 100 µM
- TGI (SK-MEL-2 melanoma): > 100 µM
- TGI (HCT-15 colon): > 100 µM
- TGI (OVCAR-5 ovarian): > 100 µM
- TGI (OVCAR-4 ovarian): > 100 µM
- TGI (SNB-19 CNS): > 100 µM
- TGI (786-0 renal): > 100 µM
- TGI (MOLT-4 leukemia): > 100 µM
- TGI (SK-OV-3 ovarian): > 100 µM

SMILES: COC1=C2CC(C)CC(OC)C(OC(=O)CCCN)C(C)/C=C(\C)C(OC(N)=O)C(OC)/C=C\C=C(/C)C(=O)NC(=CC1=O)C2=O (stereo not given)
- TGI (MDA-MB-435): 12.4 µM
- TGI (HL-60(TB) leukemia): 1.65 µM
- TGI (M14 melanoma): 17.6 µM
- TGI (A498 renal): 30.6 µM
- TGI (A549 NSCLC): 55.1 µM
- TGI (U251 CNS): 34.5 µM
- TGI (SF-268 CNS): 24.6 µM
- TGI (HCT-116 colon): 15.9 µM
- TGI (NCI-H23 lung): 14.4 µM
- TGI (COLO 205 colon): 9.48 µM
- TGI (UACC-257 melanoma): 17.7 µM
- TGI (LOX IMVI melanoma): 11.4 µM
- TGI (SK-MEL-2 melanoma): 26.9 µM
- TGI (HCT-15 colon): 14.5 µM
- TGI (OVCAR-5 ovarian): 23.8 µM
- TGI (OVCAR-4 ovarian): 20.4 µM
- TGI (SNB-19 CNS): 24.9 µM
- TGI (786-0 renal): 18.1 µM
- TGI (MOLT-4 leukemia): 3.81 µM
- TGI (SK-OV-3 ovarian): 35.1 µM

SMILES: O=C1C=C(C2=C(C3=CC(=O)c4ccccc4C3=O)C(=O)c3ccccc3C2=O)C(=O)c2ccccc21
- TGI (MDA-MB-435): 6.28 µM
- TGI (HL-60(TB) leukemia): 3.68 µM
- TGI (M14 melanoma): 22.5 µM
- TGI (A498 renal): 36.8 µM
- TGI (A549 NSCLC): 27 µM
- TGI (U251 CNS): 18.1 µM
- TGI (SF-268 CNS): 33.8 µM
- TGI (HCT-116 colon): 20.5 µM
- TGI (NCI-H23 lung): 19.7 µM
- TGI (COLO 205 colon): 17.3 µM
- TGI (UACC-257 melanoma): 25.4 µM
- TGI (LOX IMVI melanoma): 14.6 µM
- TGI (SK-MEL-2 melanoma): 42.4 µM
- TGI (HCT-15 colon): 28.9 µM
- TGI (OVCAR-5 ovarian): 25.6 µM
- TGI (OVCAR-4 ovarian): 17 µM
- TGI (SNB-19 CNS): 37.7 µM
- TGI (786-0 renal): 12.6 µM
- TGI (MOLT-4 leukemia): 2.27 µM
- TGI (SK-OV-3 ovarian): 66.5 µM
